{
  "source": "patent US6740772B1",
  "about": "“Prostaglandin derivatives” (Taisho Pharmaceutical Co., Ltd., priority 1999, dated 2004)",
  "test_system": "EBTr [NBL-4] cells derived from bovine embryonic trachea",
  "test": "cAMP production promoting action in EBTr [NBL-4] cell derived from bovine embryonic trachea",
  "type": "cell-based",
  "settings": "for EC50: concentration producing 50% of the cAMP amount obtained with 10 μM PGD2 (=100%), 15 minutes with test compound and 0.5 mM 3-isobutyl-1-methylxanthine; for cAMP production promoting action (in words): conclusion drawn from Table 1",
  "protocol": "Experiment [Measurement of cAMP production promoting action in EBTr [NBL-4] cell derived from bovine embryonic trachea]\nAccording to the method of Ito et al. in Br. J. Pharmacol., vol. 99, page 13-14 (1990), the following test was carried out.\nThat is, EBTr [NBL-4] cells derived from bovine embryonic trachea (produced by Dainippon Pharmaceutical Co.) were inoculated on 24-well plates (6×10^4 cells/well) (manufactured by Sumitomo Bakelite Co.), and cultured on a growth medium (MEM Earle's medium including 10% calf serum, 2mM glutamine and non-essential amino acids) for 48 hours, followed by cultivation on 0.5 ml of a growth medium including the test compound and 0.5 mM 3-isobutyl-1-methylxanthine) for 15 minutes. After the completion of the reaction, the cells were washed with a phosphate buffer (not including Ca++ and Mg++), 0.6 ml of 65% aqueous ethanol solution was added, followed by allowing to stand at 4° C. for an hour, and the resulting cAMP was extracted. After evaporation of the solvent by a centrifugal evaporator, the amount of cAMP was measured by using a cAMP EIA System (manufactured by Amersham Co.).\nWhen an amount of cAMP obtained by adding PGD2 in a concentration of 10 μM was regarded as 100%, a concentration required to produce 50% of the amount of cAMP was measured as EC50.\n(note) Compounds 19 and 97 are those prepared in the examples as described above. The test compounds were each used as a form of an ethanol solution, and compared with a vehicle-treated group as a control.",
  "data": [
    {"smiles": "O=C(O)CCCCSCC1C(Cl)CC(O)C1C#CC(O)C1CCCCC1", "note": "(stereo not drawn) [Compound 19, 6-Thia-9-deoxy-9β-chloro-16,17,18,19,20-pentanor-15-cyclohexyl-13,14-didehydro-PGF1α]", "values": [
      {"measurement": "EC50", "result": 17.3, "unit": "nM"},
      {"measurement": "cAMP production promoting action (in words)", "result": "strong cAMP production promoting action"}
    ]},
    {"smiles": "O=C(O)COCCSCC1C(Cl)CC(O)C1C#CC(O)C1CCCCC1", "note": "(stereo not drawn) [Compound 97, 3-Oxa-6-thia-9β-chloro-13,14-didehydro-16,17,18,19,20-pentanor-15-cyclohexyl-9-deoxy-PGF1α]", "values": [
      {"measurement": "EC50", "result": 5.13, "unit": "nM"},
      {"measurement": "cAMP production promoting action (in words)", "result": "strong cAMP production promoting action"}
    ]},
    {"smiles": "CCCCC[C@H](O)/C=C/[C@H]1C(=O)C[C@H](O)[C@@H]1C/C=C\\CCCC(=O)O", "note": "[PGD2, reference compound]", "values": [
      {"measurement": "EC50", "result": 124, "unit": "nM"}
    ]}
  ]
}
